Patent publication US20240173363A1, “MICROBIOME COMPOSITION OF HALOPHILIC BACILLUS VELEZENSIS KMU01 STRAIN FERMENTED CULTURE SUPERNATANT WITH ANTI-OBESITY EFFECT” (KOOKMINBIO, CORP., priority 2022, published 2024)

System: C57BL/6J mice
Test: Biochemical analysis of blood (plasma)
Assay type: in vivo
Conditions: HFD mice
Protocol: When brought in, the animal was inspected and weighed. […] Xenical was used as a positive control. […] Blood glucose, AST, ALT, and BUN were measured using a chemical analyzer (Fuji DRI-CHEM 3500i, Fuji Photo Film, Ltd., Tokyo, Japan), total cholesterol and high density lipoprotein (HDL)-cholesterol (hereinafter referred to as HDL-C) were measured using a LabAssay™ Cholesterol kit (Wako, Osaka, Japan), and a low-density lipoprotein (LDL)-cholesterol (hereinafter referred to as LDL-C) was calculated using the following Equation 2. In addition, TG was analyzed using TG assay kits (Abcam, Cambridge, MA), respectively. LDL-C=Total cholesterol−{(HDL-C)+(TG/5)} [EQUATION 2]

CCCCCCCCCCC[C@@H](C[C@@H]1OC(=O)[C@H]1CCCCCC)OC(=O)[C@H](CC(C)C)NC=O [Xen]
blood TG compared to the high-fat diet group (Xenical 50 mg/kg/day, 13 weeks, p<0.05): significantly reduced
LDL-C (plasma, 13 weeks oral, calculated by Equation 2, mean ± SD): 31.55 ± 17.44 mg/dL
